Experimental findings from US20150147436A1, “PRODUCTION OF CHEESE WITH S. THERMOPHILUS” (DuPont Nutrition BioSciences ApS, priority 2011, published 2015) are described below.

Assay [1] relates to urease enzyme. Kind of assay: Floating curd experiment in test tubes (Example 3). As to conditions: Lactococci + ur(+) S. thermophilus + urease inhibitor, fermented at 35° C. to pH 4.65, heated at about 66° C. (test tube 3). The protocol:
Four experiments were conducted in which milk was treated with various bacteria. In experiment 1, only Lactococci bacteria were added. In experiment 2, a blend of Lactococci bacteria and ur(+) S. thermophilus bacteria were added. In experiment 3, a blend of Lactococci bacteria, ur(+) S. thermophilus bacteria, and the urease inhibitor flurofamide were added. In experiment 4, only ur(+) S. thermophilus bacteria were added.
In each experiment, the milk was fermented with the bacteria at 35° C. until the cheese reached a pH of 4.65. A sample of the cheese was placed into a test tube, which was heated at about 66° C. for about 10 minutes. After 10 minutes of heating, a small pipette or thin wire was used to agitate the sample. The samples were held at about 66° C. for another ten minutes, at which time the photograph of the test tubes depicted in FIG. 3, was taken.
Test tube 4 is a positive control that contains ur(+) S. thermophilus, which has urease enzymes that can hydrolyze urea in milk.

Assay [2] deals with ur(−) S. thermophilus. Kind of assay: Acidification of milk by S. thermophilus with or without sodium formate (Example 2). The note with it: 10 ppm sodium formate, 2% milk, 40° C., no Lactococci, 350 minutes. It is filed as cell-based. The protocol: Samples of 2% milk taken from the same source were treated with ur(+) S. thermophilus without formate, ur(−) S. thermophilus without formate, and ur(−) S. thermophilus with 10 ppm sodium formate. Lactoccocci bacteria were not used. The milk was maintained at 40° C., and pH measurements were taken for 350 minutes.
FIG. 2 is a graph showing exemplary results from this experiment.

Each structure is given as a SMILES string.

On to `NP(N)(=O)NC(=O)c1ccc(F)cc1` [flurofamide], for which the floating curd result in assay [1] is “no floating curd”. Regarding `O=C[O-].[Na+]` [sodium formate], in assay [2], the “pH decrease effected by the ur(−) S. thermophilus” value is “significantly accelerated”.
